The NIST ThermoML archive (doi:10.1021/je800757j)
± gives the expanded uncertainty stated by the source.

Conditions: Liquid

Compound | vapor or sublimation pressure (373.15 K) [kPa] | vapor or sublimation pressure (423.15 K) [kPa] | vapor or sublimation pressure (433.15 K) [kPa] | vapor or sublimation pressure (443.15 K) [kPa] | vapor or sublimation pressure (453.15 K) [kPa] | vapor or sublimation pressure (393.15 K) [kPa] | vapor or sublimation pressure (413.15 K) [kPa] | vapor or sublimation pressure (353.15 K) [kPa]
CCCCC [pentane] | 600 ± 20 | 1620 ± 40 |  |  |  |  |  | 
CCCCCCC [heptane] |  |  | 477 ± 18 | 587 ± 19 | 703 ± 21 |  |  | 
CCCCCC [hexane] |  |  | 918 ± 25 |  | 1301 ± 33 | 410 ± 17 | 633 ± 20 | 
CCCC [butane] | 1586 ± 39 |  |  |  |  | 2265 ± 56 | 3156 ± 78 | 1039 ± 27
